Non-standard residues stand in square brackets, D forms with d. Residues, ends and D or L forms follow the SMILES beside them. *: point of attachment. AFC = O=c1cc(C(F)(F)F)c2ccc(N*)cc2o1; AMC = Cc1cc(=O)oc2cc(N*)ccc12

This data set relates to plasma proteases.
With `CC(=O)N[C@@H](CCCNC(=N)N)C(=O)N[C@@H](CCCNC(=N)N)C(=O)N[C@@H](CCCCN)C(=O)N[C@@H](CCCCN)C(=O)N[C@H](C(=O)N[C@@H](Cc1ccc(O)cc1)C(=O)N1CCC[C@H]1C(=O)Nc1ccc2c(C)cc(=O)oc2c1)C(C)C` [LBL 10079] (Ac-RRKKVYP-{AMC}), the “Cleavage / fluorescence in plasma in the absence of LF” value (“Cleavage / fluorescence in plasma” for short) is reported as “dramatic increase in fluorescence” and the “Specificity for LF” value is given as “non-specifically cleaved by plasma proteases”.
As for `CC(=O)N[C@@H](CCCNC(=N)N)C(=O)N[C@H](CCCNC(=N)N)C(=O)N[C@H](CCCCN)C(=O)N[C@H](CCCCN)C(=O)N[C@H](C(=O)N[C@@H](Cc1ccc(O)cc1)C(=O)N1CCC[C@H]1C(=O)Nc1ccc2c(C)cc(=O)oc2c1)C(C)C` [LBL 10081] (Ac-R[dR][dK][dK]VYP-{AMC}), the “Cleavage / fluorescence in plasma” value is on record as “minimal increase in hydrolysis”, the “Hydrolysis in plasma without LF” value is recorded as “minimal increase in hydrolysis” and the “Specificity for LF” value is “specific for LF”.
Turning to `CC(=O)N[C@H](CCCNC(=N)N)C(=O)N[C@H](CCCNC(=N)N)C(=O)N[C@H](CCCCN)C(=O)N[C@H](CCCCN)C(=O)N[C@H](C(=O)N[C@@H](Cc1ccc(O)cc1)C(=O)N1CCC[C@H]1C(=O)Nc1ccc2c(C)cc(=O)oc2c1)C(C)C` [LBL 10097] (Ac-[dR][dR][dK][dK]VYP-{AMC}), the “Cleavage / fluorescence in plasma” value was “minimal increase in hydrolysis”, the “Hydrolysis in plasma without LF” value is given as “minimal increase in hydrolysis” and the “Specificity for LF” value was “specific for LF”.
Take `CC(=O)N[C@@H](CCCNC(=N)N)C(=O)N[C@H](CCCNC(=N)N)C(=O)N[C@H](CCCCN)C(=O)N[C@H](CCCCN)C(=O)N[C@H](C(=O)N[C@@H](Cc1ccc(O)cc1)C(=O)N1CCC[C@H]1C(=O)Nc1ccc2c(C(F)(F)F)cc(=O)oc2c1)C(C)C` [LBL 10108] (Ac-R[dR][dK][dK]VYP-{AFC}): the “Cleavage / fluorescence in plasma” value is on record as “neither peptide was cleaved”.

(Values after patent US9932570B2 (priority 2015, dated 2018).)
